Patent publication US20080193428A1, “Composition and Method for Modulating and Maintaining Vaginal Bacterial Flora and Vaginal Acidity” (Shenzhen Phlora Biotechnology Limited, priority 2005, published 2008)

Tested on: lactobacilli
Assay: Inhibition of growth and acid-production of lactobacilli at different pH
Assay type: cell-based

benzoic acid [benzoic acid and/or its sodium salt]
inhibition effect on the growth and acid-production of lactobacilli (under a relatively high pH value (e.g., pH>4.6)): became weak
inhibition effect on the growth and acid-production of lactobacilli (under a relatively low pH value (e.g., pH<4.0)): relatively strong inhibition effect
